From article PMC4042160, “In silico, in vitro and cellular analysis with a kinome-wide inhibitor panel correlates cellular LRRK2 dephosphorylation to inhibitor activity on LRRK2” (Frontiers in Molecular Neuroscience, 2014)
Where two headings read alike, the source gives them in different places.

Assays:
[1] = biological target: T1, full length LRRK2 protein (Homo sapiens, UniProt Q5S007); experiment: In vitro LRRKtide kinase assay with full length recombinant LRRK2, dose-response (IC50/pIC50); assay type: biochemical; conditions: for IC50: read-out: IC50 in vitro (lrrktide)
T1 construct: compounds were tested in triplicate with full length LRRK2 protein; made in house
T1 sequence (Q5S007 whole entry): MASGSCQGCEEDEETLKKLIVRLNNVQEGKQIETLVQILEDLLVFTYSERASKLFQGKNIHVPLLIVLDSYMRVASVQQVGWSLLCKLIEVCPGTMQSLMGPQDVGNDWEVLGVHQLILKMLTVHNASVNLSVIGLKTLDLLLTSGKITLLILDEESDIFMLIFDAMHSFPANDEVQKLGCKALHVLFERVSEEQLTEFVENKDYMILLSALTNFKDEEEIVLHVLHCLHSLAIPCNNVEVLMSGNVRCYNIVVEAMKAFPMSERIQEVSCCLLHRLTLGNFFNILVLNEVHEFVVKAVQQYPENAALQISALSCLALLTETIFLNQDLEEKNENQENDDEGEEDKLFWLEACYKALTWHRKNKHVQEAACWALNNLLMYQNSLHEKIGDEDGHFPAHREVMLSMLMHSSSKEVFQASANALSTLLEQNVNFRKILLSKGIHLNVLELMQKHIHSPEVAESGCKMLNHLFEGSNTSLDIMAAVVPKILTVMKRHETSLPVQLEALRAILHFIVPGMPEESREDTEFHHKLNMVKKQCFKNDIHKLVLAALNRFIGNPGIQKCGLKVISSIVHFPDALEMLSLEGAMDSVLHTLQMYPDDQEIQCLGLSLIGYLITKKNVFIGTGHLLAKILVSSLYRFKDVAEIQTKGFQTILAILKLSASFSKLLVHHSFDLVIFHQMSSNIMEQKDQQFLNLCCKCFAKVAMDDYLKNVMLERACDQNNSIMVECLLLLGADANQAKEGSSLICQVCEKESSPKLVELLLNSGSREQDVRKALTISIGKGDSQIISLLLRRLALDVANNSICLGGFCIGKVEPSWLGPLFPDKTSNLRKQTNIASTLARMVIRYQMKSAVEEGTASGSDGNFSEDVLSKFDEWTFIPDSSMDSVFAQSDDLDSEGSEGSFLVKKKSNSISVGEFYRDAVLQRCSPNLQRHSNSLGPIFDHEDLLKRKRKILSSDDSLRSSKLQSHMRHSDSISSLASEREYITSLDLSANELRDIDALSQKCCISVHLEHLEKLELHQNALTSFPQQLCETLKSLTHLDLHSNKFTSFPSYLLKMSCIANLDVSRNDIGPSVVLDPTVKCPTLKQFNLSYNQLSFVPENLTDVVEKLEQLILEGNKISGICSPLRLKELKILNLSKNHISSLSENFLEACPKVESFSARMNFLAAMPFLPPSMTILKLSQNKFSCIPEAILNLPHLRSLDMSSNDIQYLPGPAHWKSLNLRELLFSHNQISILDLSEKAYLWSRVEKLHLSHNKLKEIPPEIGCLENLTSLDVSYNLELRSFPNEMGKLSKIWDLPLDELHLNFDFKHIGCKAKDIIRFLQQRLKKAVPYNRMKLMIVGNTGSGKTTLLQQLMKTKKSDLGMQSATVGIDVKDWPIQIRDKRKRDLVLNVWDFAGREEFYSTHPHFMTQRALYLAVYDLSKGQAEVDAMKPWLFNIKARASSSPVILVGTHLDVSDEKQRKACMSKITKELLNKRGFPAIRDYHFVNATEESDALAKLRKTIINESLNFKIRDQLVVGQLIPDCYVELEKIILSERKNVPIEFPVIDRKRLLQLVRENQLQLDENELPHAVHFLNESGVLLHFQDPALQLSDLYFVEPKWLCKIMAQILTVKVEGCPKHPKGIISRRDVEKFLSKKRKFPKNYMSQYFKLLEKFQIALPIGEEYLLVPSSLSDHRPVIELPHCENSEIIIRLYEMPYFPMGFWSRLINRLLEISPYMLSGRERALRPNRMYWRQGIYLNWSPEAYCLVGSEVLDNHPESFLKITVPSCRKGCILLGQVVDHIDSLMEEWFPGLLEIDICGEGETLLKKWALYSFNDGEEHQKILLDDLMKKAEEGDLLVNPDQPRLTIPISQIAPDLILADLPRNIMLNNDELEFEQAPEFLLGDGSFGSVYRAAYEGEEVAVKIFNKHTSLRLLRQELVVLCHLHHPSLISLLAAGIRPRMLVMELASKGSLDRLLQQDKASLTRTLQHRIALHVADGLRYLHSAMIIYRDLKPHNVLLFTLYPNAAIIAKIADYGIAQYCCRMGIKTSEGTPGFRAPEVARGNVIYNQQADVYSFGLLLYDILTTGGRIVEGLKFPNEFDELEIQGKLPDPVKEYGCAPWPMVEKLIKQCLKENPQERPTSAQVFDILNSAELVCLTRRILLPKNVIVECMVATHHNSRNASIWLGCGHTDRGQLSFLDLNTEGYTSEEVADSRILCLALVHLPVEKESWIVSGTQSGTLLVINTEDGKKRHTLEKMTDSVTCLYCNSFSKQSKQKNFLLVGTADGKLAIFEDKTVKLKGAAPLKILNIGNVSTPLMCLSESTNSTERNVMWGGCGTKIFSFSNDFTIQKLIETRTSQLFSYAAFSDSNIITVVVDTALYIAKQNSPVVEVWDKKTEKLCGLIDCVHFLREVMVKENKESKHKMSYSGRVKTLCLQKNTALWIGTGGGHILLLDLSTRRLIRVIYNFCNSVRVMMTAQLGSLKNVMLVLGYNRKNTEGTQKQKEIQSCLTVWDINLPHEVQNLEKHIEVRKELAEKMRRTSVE

[2] = biological target: T2, LRRK2 phospho-Ser935 (Homo sapiens, UniProt Q5S007); experiment: Cellular LRRK2 phosphoserine 935 dephosphorylation spotblot assay in SH-SY5Y cells stably expressing 3xFlag-LRRK2; assay type: cell-based; conditions: for Phosphorylation level relative to solvent (%) (cellular pS935 assay): @ 5 μM for 2 h, SH-SY5Y stably expressing LRRK2, pS935/total LRRK2; for IC50: read-out: IC50 cellular (pS935)
T2 construct: expressed in transfected cells
T2 sequence (Q5S007 whole entry): as above

[3] = biological target: T3, GST-tagged truncated LRRK2 containing residues 970 to 2527 (Homo sapiens, UniProt Q5S007); experiment: In vitro LRRKtide peptide-substrate kinase assay, single dose testing (10 μM); assay type: biochemical; conditions: LRRKtide assay @ 10 μM inhibitor; GST-LRRK2 970-2527; 10 μM ATP; mean, N = 3; solvent control = 100%
T3 construct: GST-tagged truncated LRRK2 containing residues 970 to 2527 (Life Technologies); purchased Life Technologies
T3 sequence (Q5S007 970-2527): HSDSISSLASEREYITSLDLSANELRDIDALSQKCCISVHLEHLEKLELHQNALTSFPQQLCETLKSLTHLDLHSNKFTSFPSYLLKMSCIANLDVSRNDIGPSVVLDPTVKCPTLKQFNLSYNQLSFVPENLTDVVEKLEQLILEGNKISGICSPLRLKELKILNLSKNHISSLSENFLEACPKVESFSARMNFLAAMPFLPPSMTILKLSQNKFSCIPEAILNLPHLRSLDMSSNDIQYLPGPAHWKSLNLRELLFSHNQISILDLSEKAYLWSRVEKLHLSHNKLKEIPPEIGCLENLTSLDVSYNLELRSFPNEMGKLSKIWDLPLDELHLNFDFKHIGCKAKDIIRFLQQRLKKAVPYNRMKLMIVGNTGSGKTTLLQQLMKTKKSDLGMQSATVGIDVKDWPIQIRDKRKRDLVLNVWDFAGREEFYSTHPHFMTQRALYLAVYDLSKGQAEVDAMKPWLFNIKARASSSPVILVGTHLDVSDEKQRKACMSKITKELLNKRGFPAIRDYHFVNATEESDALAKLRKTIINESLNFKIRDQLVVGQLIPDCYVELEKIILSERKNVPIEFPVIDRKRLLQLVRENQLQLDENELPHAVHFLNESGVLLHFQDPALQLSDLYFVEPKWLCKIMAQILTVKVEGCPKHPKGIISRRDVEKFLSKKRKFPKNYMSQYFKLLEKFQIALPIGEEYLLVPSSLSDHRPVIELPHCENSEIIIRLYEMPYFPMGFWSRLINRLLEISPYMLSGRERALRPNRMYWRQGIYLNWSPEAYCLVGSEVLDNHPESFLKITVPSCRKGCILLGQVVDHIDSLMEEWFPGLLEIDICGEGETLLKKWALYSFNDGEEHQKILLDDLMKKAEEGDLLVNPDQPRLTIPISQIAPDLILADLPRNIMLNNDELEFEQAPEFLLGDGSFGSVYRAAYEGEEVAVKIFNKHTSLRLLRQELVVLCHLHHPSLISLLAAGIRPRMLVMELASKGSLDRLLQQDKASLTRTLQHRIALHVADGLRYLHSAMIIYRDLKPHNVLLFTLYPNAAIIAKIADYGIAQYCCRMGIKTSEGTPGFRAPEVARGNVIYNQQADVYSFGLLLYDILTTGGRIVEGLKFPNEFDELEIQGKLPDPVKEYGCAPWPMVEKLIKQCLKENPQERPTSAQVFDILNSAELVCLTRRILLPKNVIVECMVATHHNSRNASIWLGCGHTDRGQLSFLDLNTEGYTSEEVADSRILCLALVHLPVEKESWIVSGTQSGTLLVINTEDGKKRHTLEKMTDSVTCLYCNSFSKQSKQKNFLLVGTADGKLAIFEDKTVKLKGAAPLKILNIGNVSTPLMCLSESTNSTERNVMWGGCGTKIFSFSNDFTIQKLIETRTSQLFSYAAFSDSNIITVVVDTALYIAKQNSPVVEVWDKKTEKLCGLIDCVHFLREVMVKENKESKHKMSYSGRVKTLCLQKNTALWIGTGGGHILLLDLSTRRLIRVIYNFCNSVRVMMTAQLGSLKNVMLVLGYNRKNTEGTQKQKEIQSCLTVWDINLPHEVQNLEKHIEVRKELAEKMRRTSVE

[4] = LRRKtide phosphorylation, dose-response
[5] = pS935 level as % of control, 5 μM for 2 h, SH-SY5Y cells with stable expression of LRRK2
[6] = pS935 dephosphorylation, SH-SY5Y cells with stable expression of LRRK2

Row | Compound | pIC50 in vitro (lrrktide) [1, 4] | IC50 [1, 4] [nM] | Cellular pS935 (% @ 5 μM) [2, 5] [%] | % LRRKtide phosphorylation relative to solvent [3] [%] | Phosphorylation level relative to solvent (%) (cellular pS935 assay) [2] | other results
1 | CCCNC(=O)Nc1ccc(Oc2ncnc3cc(OC)c(OC)cc23)cc1Cl | <5 | > 10000 | 62.48 |  |  | 
2 | COc1cc2ncnc(Nc3cccc(Cl)c3)c2cc1OC [AG 1478] | 5.43 | 3730 | 75.11 | 5.72 | 75.11 | 
3 | CC(C)[C@H](CO)Nc1nc(Nc2cc(N)cc(Cl)c2)c2ncn(C(C)C)c2n1 [Aminopurvalanol A] |  | 2030 | 121.05 | 7.36 | 121.05 | 
4 | COc1cc2ncnc(Nc3ccc(NC(=O)c4ccccc4)cc3)c2cc1OC [Aurora kinase inhibitor II] | <5 | > 10000 | 69.85 | 22.60 | 69.85 | 
5 | COc1cc(N2CCOCC2)ccc1Nc1ncc(F)c(Nc2ccccc2NS(C)(=O)=O)n1 [CZC25146] | 8.75 | 1.78 | 8.62 |  |  | pIC50 cellular (pS935) [2, 6]: 7.36; IC50 [2, 6]: 43.6 nM
6 | CCn1cnc2c(Nc3cccc(Cl)c3)nc(N[C@H]3CCCC[C@H]3N)nc21 [Cdk1 inhibitor. CGP74514A] | 5.46 | 3470 | 83.35 |  |  | 
7 | O=C1Nc2ccccc2/C1=C\c1c(Cl)[nH]c2ccccc12 [Cdk1 inhibitor] | <5 | > 10000 | 78.35 | 29.84 | 78.35 | 
8 | Nc1nc(Nc2ccc(S(N)(=O)=O)cc2)nn1C(=S)Nc1c(F)cccc1F [Cdk1/2 inhibitor III] | 9.04 | 0.91 | 13.15 | 0.73 | 13.15 | pIC50 cellular (pS935) [2, 6]: 8.93; IC50 [2, 6]: 1.18 nM
9 | COc1ccc(CNc2nc(N(CCO)CCO)nc3c2ncn3C(C)C)cc1 [Cdk2 inhibitor III] | <5 | > 10000 | 100.49 | 60.51 | 100.49 | 
10 | CC(C)n1cnc2c(Nc3cccc(Cl)c3)nc(NCCO)nc21 [Compound 52] | 5.41 | 3930 | 76.44 | 7.76 | 76.44 | 
11 | CCOc1cc2ncnc(Nc3cccc(Br)c3)c2cc1OCC [Compound 56] | 5.52 | 3010 | 86.56 | 4.52 | 86.56 | 
12 | CN(C)c1ccc(/C=C2\C(=O)Nc3ccccc32)cc1 [DMBI] | 5.83 | 1480 | 54.34 | 19.33 | 54.34 | 
13 | O=C1Nc2ccccc2/C1=C1/Nc2ccccc2/C1=N\O [Indirubin-3'-monoxime] | 5.75 | 1790 | 85.53 |  |  | 
14 | COc1cc(C(=O)N2CCC(N3CCN(C)CC3)CC2)ccc1Nc1ncc2c(n1)N(C)c1ccccc1C(=O)N2C [LRRK2 IN1] |  |  |  |  |  | pIC50 in vitro (lrrktide) [1]: 8.45; IC50 [1]: 3.54 nM; Cellular pS935 (% @ 5 μM) [2]: 9.32%; pIC50 cellular (pS935) [2]: 6.55; IC50 [2]: 280 nM
15 | C[C@@H](N)[C@H]1CC[C@H](C(=O)Nc2ccncc2)CC1 [ROCK inhibitor, Y-27632, Y-27632] |  |  |  | 10.36 | 69.28 | 
16 | Oc1ccc(-c2nc(-c3ccncc3)c(-c3ccc(F)cc3)[nH]2)cc1 [SB 202190] |  |  |  | 45.07 | 88.12 | 
17 | C[S+]([O-])c1ccc(-c2nc(-c3ccncc3)c(-c3ccc(F)cc3)[nH]2)cc1 (centres unmarked) [SB 203580] |  |  |  | 100.48 | 90.32 | 
18 | O=C1NC(=O)c2c1c1c3ccccc3n3c1c1c2c2ccccc2n1C1CCC3O1 [SB 218078] |  |  |  | 1.94 | 89.51 | 
19 | O=C(O)c1ccc2c3c1cccc3c(=O)n1c3ccccc3nc21 [STO-609] |  |  |  | 15.01 | 121.51 | 
20 | Oc1ccc(Nc2nc(-c3ccc(Cl)cc3)cs2)cc1 [Sphingosine kinase inhibitor] |  |  |  | 106.21 | 144.00 | 
21 | O=[N+]([O-])/C=C/c1ccc2c(c1)OCO2 [Syk inhibitor III] |  |  |  | 82.95 | 68.01 | 
22 | O=C(Nc1ccc(Cl)cc1)c1ccccc1NCc1ccncc1 [VEGF receptor tyrosine kinase inhibitor II] |  |  |  | 91.34 | 65.97 | 
23 | O=c1c(-c2ccc(F)cc2)c(-c2ccncc2)[nH]n1-c1ccc(Cl)cc1 [p38 MAP kinase inhibitor] |  |  |  | 132.68 | 93.68 | 
24 | GTP-14564 |  |  |  | 18.03 | 71.63 | 
25 | Indirubin-3′-monoxime |  |  |  | 11.18 | 85.53 | 
26 | PDK1/Akt/Flt dual pathway inhibitor |  |  |  | 5.76 | 57.20 | 
27 | PI 3-KbInhibitor II |  |  |  | 93.55 | 66.60 | 
28 | PKR inhibitor. negative control | 6.53 | 297 | 72.69 |  |  | 
29 | cFMS receptor tyrosine kinase inhibitor |  |  |  | 110.22 | 60.62 | 

Now from value to compound, other results behind:

Row | pIC50 in vitro (lrrktide) [1, 4] | IC50 [1, 4] [nM] | Cellular pS935 (% @ 5 μM) [2, 5] [%] | % LRRKtide phosphorylation relative to solvent [3] [%] | Phosphorylation level relative to solvent (%) (cellular pS935 assay) [2] | Compound | other results
30 |  |  |  | 101.20 | 65.24 | CO[C@H]1C[C@@H]2CC[C@@H](C)[C@@](O)(O2)C(=O)C(=O)N2CCCC[C@H]2C(=O)O[C@H]([C@H](C)C[C@@H]2CC[C@@H](O)[C@H](OC)C2)CC(=O)[C@H](C)/C=C(\C)[C@@H](O)[C@@H](OC)C(=O)[C@H](C)C[C@H](C)/C=C/C=C/C=C/1C [Rapamycin] | 
31 |  |  |  | 32.15 | 63.04 | c1ccc2c(-c3ccncc3)c[nH]c2c1 [Rho kinase inhibitor III, rockout, rockout] | 
32 |  |  |  | 10.29 | 59.98 | Cc1cncc2cccc(S(=O)(=O)N3CCCN(C(=O)CN)C[C@@H]3C)c12 [Rho kinase inhibitor IV] | 
33 |  |  |  | 47.64 | 112.24 | CCc1[nH]c(-c2ccc(OC)cc2)nc1-c1ccncc1 [SB 202474] | 
34 |  |  |  | 73.68 | 70.97 | Nc1nccc(-c2c(-c3ccc(F)cc3)ncn2C2CCNCC2)n1 [SB 220025] | 
35 |  |  |  | 48.07 | 104.03 | Cc1nc(-c2ccccc2)c(-c2ccncc2)o1 [SC-68376] | 
36 |  |  |  | 94.81 | 121.09 | Fc1ccc(-c2nc3n(c2-c2ccncc2)CCS3)cc1 [SKF-86002] | 
37 |  |  |  | 3.50 | 76.71 | NCCNc1ncc(C(N)=O)c(Nc2cccc(C(F)(F)F)c2)n1 [Syk inhibitor II] | 
38 |  |  |  | 104.37 | 57.95 | Cc1cccc(-c2[nH]c(C(C)(C)C)nc2-c2ccc3c(c2)OCO3)n1 [TGF-b RI inhibitor III] | 
39 |  |  |  | 47.94 | 71.73 | c1ccc(-c2[nH]ncc2-c2ccnc3ccccc23)nc1 [TGF-b RI kinase inhibitor] | 
40 |  |  |  | 55.04 | 102.54 | N#Cc1cnc2cnc(NCc3cccnc3)cc2c1Nc1ccc(F)c(Cl)c1 [Tpl2 kinase inhibitor] | 
41 |  |  |  | 77.83 | 48.48 | COc1ccc(-c2cnc3c(-c4ccsc4)cnn3c2)cc1 [VEGF receptor 2 kinase inhibitor IV] | 
42 |  |  |  | 112.29 | 83.74 | CSc1nc(-c2ccnc(NC(C)c3ccccc3)c2)c(-c2ccc(F)cc2)[nH]1 (centres unmarked) [p38 MAP kinase inhibitor III] | 
43 | 6.20 | 632 | 57.29 |  |  | Syk inhibitor | 
